Laboratory results published in patent US10251860B2, “Compounds for bone healing” (University of Pittsburgh—Of the Commonwealth System of …, priority 2015, dated 2019).
Blank lines part the entries; values can stand above or below the compound they belong to.

Columns and labels:
[1] = reported value; cited from earlier work
liver cell line (HepG2) = type: cell-based
Description: (§1) The cellular toxicity of sulfoxide 3 was further determined for a breast cancer cell line (MDA-MB-231) and a liver cell line (HepG2).

[2] = system: breast cancer cell line (MDA-MB-231); type: cell-based
Description: as §1

[3] = Water absorption of compound storage media (Karl Fischer titration); type: physicochemical; conditions: for Water content at t = 7 d: room temperature, pierced septum
Method: General procedure for calculation of water absorption. Oven-dried flasks capped with septa were cooled under a N2 atmosphere and charged with a volume of the appropriate solutions (DMSO, 3.0 mL; NMP, 600 μL; 25% 3/NMP, 600 μL). The water content was determined by Karl Fischer titration using about 100 μL aliquots (t=0 measurement). Each septum was pierced with a 1.5 inch 18 gauge needle and left to stand at room temperature for 7 days. The water content was measured at the end of this period (t=7 d measurement) by Karl Fischer titration. All measurements were made in duplicate. Results and Discussion.

Brine shrimp = Brine shrimp toxicity assay; type: in vivo
Method: General procedure for brine shrimp toxicity assays. Sample preparation. Stock solutions of 3 were prepared by dissolving 3 (50.0 mg) in 5.0 HPLC grade water (5.0 mL), (solution A) and 3 (2.50 g) in HPLC grade water (10.0 mL) (solution B). Stock solutions of DMSO were prepared by diluting DMSO (45 μL) with HPLC grade water (5.0 mL) (solution C) and DMSO (2.27 mL) with HPLC grade water (10.0 mL) (solution D).
In each case, 5 replicates were performed. Each replicate was performed in a 2 dram vial marked at the 4 and 5 mL volume points. To each vial was added artificial sea water (3 mL) followed by the appropriate volume of stock solution. For set 1 (1.0 mg/mL), solution A (0.500 mL) or solution C (0.500 mL) was added. For set 2 (5.0 mg/mL), solution B (0.100 mL) or solution D (0.100 mL) was added to each vial. For set 3 (20.0 mg/mL), solution B (0.400 mL) or solution D (0.400 mL) was added to each vial. For set 4 (50.0 mg/mL), solution B (1.00 mL) or solution D (1.00 mL) was added to each vial. Controls containing HPLC grade water (0.100 mL, 0.400 mL, and 1.00 mL) were prepared in the same manner, and five replicates of each control were prepared.
Brine shrimp eggs (San Francisco Bay Brand) were hatched in a commercial salt mixture (Instant Ocean). Constant aeration was provided using a pump and airstone, and illumination was maintained using a desk lamp. The shrimp were collected in a separate tank after 48 hours and used within 3-4 hours of collection.
Brine shrimp were added to each vial using a plastic transfer pipet. After the shrimp were transferred, artificial sea-water was added until the volume reached the 5-mL mark. One drop of a yeast suspension prepared by suspending 11 mg yeast in sea-water (20 mL) was added to each vial. The shrimp were counted at t=24 hours. Another drop of freshly prepared yeast solution (6 mg in 10 mL sea water) was added, the vials were maintained under illumination, and shrimp were counted at t=48 hours.

[4] = Method: (§2) Eppendorf vials (1.5 mL size) were charged with model compounds in excess. […] The vials were briefly vortexed and equilibrated in an end-over-end rotator at 30.0° C. for 20 hours.
as §2

SMILES: COC(=O)Nc1nc2ccccc2[nH]1 [Compound 10, carbendazim]
effect of addition of sulfoxide 3 on aqueous solubility [4]: increased the aqueous solubility

SMILES: COC1=CC(=O)C[C@@H](C)[C@]12Oc1c(Cl)c(OC)cc(OC)c1C2=O [Compound 11, griseofulvin]
effect of addition of sulfoxide 3 on aqueous solubility [4]: increased the aqueous solubility

SMILES: COc1cc(/C=C/C(=O)CC(=O)/C=C/c2ccc(O)c(OC)c2)ccc1O [Compound 7, curcumin]
effect of addition of sulfoxide 3 on aqueous solubility [4]: increased the aqueous solubility

Further lines, with some results ahead:

GI50 (liver cell line (HepG2)): ~800 mM | GI50 [2]: ~800 mM | Water content at t = 0 ([3]; first vessel): 160 ppm | Water content at t = 7 d ([3]; first vessel): 1080 ppm | Water content at t = 0 ([3]; second vessel): 170 ppm | Water content at t = 7 d ([3]; second vessel): 1130 ppm
SMILES: C[S+](C)[O-] [DMSO, dimethyl sulfoxide, reference compound]
reported log P [1]: −1.3 | % Mortality after 24 h (Brine shrimp; 1 mg/mL): 0% | % Mortality after 48 h (Brine shrimp; 1 mg/mL): 0-10% | % Mortality after 24 h (Brine shrimp; 5 mg/mL): 0% | % Mortality after 48 h (Brine shrimp; 5 mg/mL): 0-6% | % Mortality after 24 h (Brine shrimp; 20 mg/mL): 0% | % Mortality after 48 h (Brine shrimp; 20 mg/mL): 0% | % Mortality after 24 h (Brine shrimp; 50 mg/mL): 0% | % Mortality after 48 h (Brine shrimp; 50 mg/mL): 15% | mortality after 24 h (Brine shrimp; same concentrations (1-50 mg/mL)): no mortality

Water content at t = 0 ([3]; first vessel): 150 ppm | Water content at t = 7 d ([3]; first vessel): 12,090 ppm | Water content at t = 0 ([3]; second vessel): 130 ppm | Water content at t = 7 d ([3]; second vessel): 17,000 ppm
SMILES: CN1CCCC1=O [NMP, N-methyl-2-pyrrolidone]
